By EC50 is commonly meant the concentration giving half of the maximal effect. A low value points to an effect from little substance. Broadly, the IC50 is the concentration needed to halve the response being measured.

EC50 and IC50 data for 15 compounds are collected here from US20260242391A1 (priority 2023, published 2026).

For one series, the system named is HL-60. The experiment in a line: HL-60 differentiation potency. The class given is cell-based. The settings on record: Homo sapiens.
The next series in a line: in vitro. The settings on record: human.

On to `C[C@H]1[C@@H](Oc2ccc(-c3ccc(C(=O)O)cc3)cc2)O[C@@H]2O[C@@]3(C)CC[C@H]4[C@H](C)CC[C@@H]1[C@@]24OO3` [Compound 107, 4′-(((3R,5aS,6R,8aS, 9R,10S,12R, 12aR)-3,6,9-trimethyldeca-hydro-12H-3,12-epoxy[1,2]dioxepino[4,3-i]isochromen-10-yl)oxy)-[1,1′-biphenyl]-4-carboxylic acid], for which, in the series with HL-60, the EC50 was found to be 23.5 nM. In addition, the concentration for half-maximal inhibition (IC50) in the series “in vitro” is 40 nM.
The corresponding values for `C[C@H]1[C@@H](OCc2ccc(C(=O)O)cc2Cl)O[C@@H]2O[C@@]3(C)CC[C@H]4[C@H](C)CC[C@@H]1[C@@]24OO3` [Compound 119, 3-chloro-4-((((3R,5aS,6R, 8aS,9R,10S,12R, 12aR)-3,6,9-trimethyldeca-hydro-12H-3,12-epoxy[1,2]dioxepino[4,3-i]isochromen-10-yl)oxy)methyl) benzoic acid] are 110 nM and greater than 20000 nM.
`C[C@H]1[C@@H](Oc2ccc(C3(C(=O)O)CC3)cc2)O[C@@H]2O[C@@]3(C)CC[C@H]4[C@H](C)CC[C@@H]1[C@@]24OO3` [Compound 124, 1-(4-(((3R,5aS,6R,8aS, 9R,10S,12R, 12aR)-3,6,9-trimethyldeca-hydro-12H-3,12-epoxy[1,2]dioxepino[4,3-i]isochromen-10-yl)oxy)phenyl) cyclopropane-1-carboxylic acid] returned an EC50 in the series with HL-60 of 28.8 nM. This compound registered an IC50 in the series “in vitro” of 2450 nM.
`C[C@H]1[C@@H](Oc2ccc(C(C)(C)C(=O)O)cc2)O[C@@H]2O[C@@]3(C)CC[C@H]4[C@H](C)CC[C@@H]1[C@@]24OO3` [Compound 126, 2-methyl-2-(4-(((3R,5aS,6R,8aS, 9R,10S,12R, 12aR)-3,6,9-trimethyldeca-hydro-12H-3,12-epoxy[1,2]dioxepino[4,3-i]isochromen-10-yl)oxy)phenyl) propanoic acid]: the EC50 in the series with HL-60 was determined as 15.6 nM. This compound had an IC50 in the series “in vitro” of 5500 nM.
The corresponding values for `C[C@H]1[C@@H](OCC2(C(=O)O)CCC2)O[C@@H]2O[C@@]3(C)CC[C@H]4[C@H](C)CC[C@@H]1[C@@]24OO3` [Compound 127, 1-((((3R,5aS,6R, 8aS,9R,10S,12R, 12aR)-3,6,9-trimethyldeca-hydro-12H-3,12-epoxy[1,2]dioxepino[4,3-i]isochromen-10-yl)oxy)methyl) cyclobutane-1-carboxylic acid] are 8880 nM and greater than 20000 nM.
`C[C@H]1[C@H](Oc2ccc(C(=O)C(=O)O)cc2)O[C@@H]2O[C@@]3(C)CC[C@H]4[C@H](C)CC[C@@H]1[C@@]24OO3` [Compound 129, 2-oxo-2-(4-(((3R,5aS,6R,8aS, 9R,10R,12R, 12aR)-3,6,9-trimethyldeca-hydro-12H-3,12-epoxy[1,2]dioxepino[4,3-i]isochromen-10-yl)oxy)phenyl) acetic acid]: in the series on HL-60, the response was half-maximal at 3380 nM (EC50). The same compound came in with an IC50 in the series “in vitro” of 10500 nM.
Taken in the same sequence, the figures for `C[C@H]1[C@@H](O[C@H]2CC[C@@H](CC(=O)O)C2)O[C@@H]2O[C@@]3(C)CC[C@H]4[C@H](C)CC[C@@H]1[C@@]24OO3` [Compound 130, 2-((1R,3S)-3-(((3R,5aS,6R,8aS, 9R,10S,12R, 12aR)-3,6,9-trimethyldeca-hydro-12H-3,12-epoxy[1,2]dioxepino[4,3-i]isochromen-10-yl)oxy)cyclo-pentyl)acetic acid] were 241 nM and greater than 20000 nM.
Consider `C[C@H]1[C@@H](OC(C)(C)[C@H]2CC[C@@H](C(=O)O)CC2)O[C@@H]2O[C@@]3(C)CC[C@H]4[C@H](C)CC[C@@H]1[C@@]24OO3` [Compound 131, (1R,4s)-4-(2-(((3R,5aS,6R,8aS, 9R,10S,12R, 12aR)-3,6,9-trimethyldeca-hydro-12H-3,12-epoxy[1,2]dioxepino[4,3-i]isochromen-10-yl)oxy)propan-2-yl)cyclohexane-1-carboxylic acid], for which, in the series with HL-60, a half-maximal response (EC50) required 159 nM. This compound also yielded an IC50 in the series “in vitro” of 16500 nM.
The corresponding values for `C[C@H]1[C@@H](Oc2ccc(CC(=O)OC(C)(C)C)cc2)O[C@@H]2O[C@@]3(C)CC[C@H]4[C@H](C)CC[C@@H]1[C@@]24OO3` [Compound 132, tert-butyl 2-(4-(((3R,5aS,6R,8aS, 9R,10S,12R, 12aR)-3,6,9-trimethyldeca-hydro-12H-3,12-epoxy[1,2]dioxepino[4,3-i]isochromen-10-yl)oxy)phenyl) acetate] are 12.4 nM and 10 nM.
Consider `C[C@H]1[C@@H](Oc2ccc(C(=O)N[C@H]3CC[C@@H](C(=O)O)C3)cc2)O[C@@H]2O[C@@]3(C)CC[C@H]4[C@H](C)CC[C@@H]1[C@@]24OO3` [Compound 134, (1R,3S)-3-(4-(((3R,5aS,6R,8aS, 9R,10S,12R, 12aR)-3,6,9-trimethyldeca-hydro-12H-3,12-epoxy[1,2]dioxepino[4,3-i]isochromen-10-yl)oxy)benzamido)cyclo-pentane-1-carboxylic acid], for which the EC50 in the series with HL-60 stood at 24.4 nM. In the series “in vitro”, this compound showed an IC50 of 8000 nM.
The corresponding values for `C[C@H]1[C@@H](OC[C@H]2CCC[C@@H](C(=O)O)C2)O[C@@H]2O[C@@]3(C)CC[C@H]4[C@H](C)CC[C@@H]1[C@@]24OO3` [Compound 135, (1R,3S)-3-((((3R,5aS,6R, 8aS,9R,10S,12R, 12aR)-3,6,9-trimethyldeca-hydro-12H-3,12-epoxy[1,2]dioxepino[4,3-i]isochromen-10-yl)oxy)methyl) cyclohexane-1-carboxylic acid] are 225 nM and greater than 20000 nM.
The corresponding values for `C[C@H]1[C@@H](OC[C@H]2CC[C@@H](C(=O)O)C2)O[C@@H]2O[C@@]3(C)CC[C@H]4[C@H](C)CC[C@@H]1[C@@]24OO3` [Compound 136, (1R,3S)-3-((((3R,5aS,6R, 8aS,9R,10S,12R, 12aR)-3,6,9-trimethyldeca-hydro-12H-3,12-epoxy[1,2]dioxepino[4,3-i]isochromen-10-yl)oxy)methyl) cyclopentane-1-carboxylic acid] are 197 nM and greater than 20000 nM.
Taken in the same sequence, the figures for `C[C@H]1[C@H](OCc2c(F)cc(C(=O)O)cc2F)O[C@@H]2O[C@@]3(C)CC[C@H]4[C@H](C)CC[C@@H]1[C@@]24OO3` [Compound 137, 3,5-difluoro-4-((((3R,5aS,6R,8aS, 9R,10R,12R, 12aR)-3,6,9-trimethyldeca-hydro-12H-3,12-epoxy[1,2]dioxepino[4,3-i]isochromen-10-yl)oxy)methyl) benzoic acid] were 86.8 nM and greater than 20000 nM.
In turn, `C[C@H]1[C@@H](OC[C@@H]2CCC[C@H](C(=O)O)C2)O[C@@H]2O[C@@]3(C)CC[C@H]4[C@H](C)CC[C@@H]1[C@@]24OO3` [Compound 138, (1S,3R)-3-((((3R,5aS,6R, 8aS,9R,10S,12R, 12aR)-3,6,9-trimethyldeca-hydro-12H-3,12-epoxy[1,2]dioxepino[4,3-i]isochromen-10-yl)oxy)methyl) cyclohexane-1-carboxylic acid] yielded an EC50 in the series on HL-60 of 120 nM. In “in vitro”, this compound returned an IC50 greater than 20000 nM.
Taken in the same sequence, the figures for `C[C@H]1[C@H](Oc2ccc(C#CC(=O)O)cc2)O[C@@H]2O[C@@]3(C)CC[C@H]4[C@H](C)CC[C@@H]1[C@@]24OO3` [Compound 139, 3-(4-(((3R,5aS,6R,8aS, 9R,10R,12R, 12aR)-3,6,9-trimethyldeca-hydro-12H-3,12-epoxy[1,2]dioxepino[4,3-i]isochromen-10-yl)oxy)phenyl) propiolic acid] were 30.9 nM and 3000 nM.
